Test results: patent publication US20230059898A1 (priority 2020, published 2023)
Structures can show the parent of a compound that is named as a salt.

Test system: biocontrol strain ST15
Assay type: cell-based, Bacillus altitudinis
Note: key: +: not sensitive; −: sensitive.

[Cl-].[Na+] [1% NaCl, NaCl]
chemical sensitivity of strain ST15: +

CC(O)C(=O)[O-].[Na+] (centres unmarked) [1% sodium lactate, sodium lactate]
chemical sensitivity of strain ST15: +

C[C@H]1[C@H](NC(=O)/C(=N\OC(C)(C)C(=O)O)c2csc(N)n2)C(=O)N1S(=O)(=O)O [Aztreonam]
chemical sensitivity of strain ST15: +

N[C@H](CO)C(=O)O [D-serine]
chemical sensitivity of strain ST15: −

O=[Te]([O-])[O-].[K+].[K+] [Dipotassium trioxotellurate]
chemical sensitivity of strain ST15: +

CC(=O)O[C@H]1C[C@@]2(C)[C@@H](C[C@@H](O)[C@H]3[C@@]4(C)CC[C@@H](O)[C@@H](C)[C@@H]4CC[C@@]32C)/C1=C(\CCC=C(C)C)C(=O)O [Fusidic acid]
chemical sensitivity of strain ST15: −

N=C(N)N [Guanidine hydrochloride]
chemical sensitivity of strain ST15: +

CCC[C@@H]1C[C@@H](C(=O)N[C@@H]([C@H]2O[C@H](SC)[C@H](O)[C@@H](O)[C@H]2O)[C@@H](C)O)N(C)C1 [Lincomycin]
chemical sensitivity of strain ST15: +

[Cl-].[Li+] [Lithium chloride]
chemical sensitivity of strain ST15: +

CCn1cc(C(=O)O)c(=O)c2ccc(C)nc21 [Nalidixic acid]
chemical sensitivity of strain ST15: +

CO[C@H]1/C=C/O[C@@]2(C)Oc3c(C)c([O-])c4c(O)c(cc(O)c4c3C2=O)NC(=O)/C(C)=C\C=C\[C@H](C)[C@H](O)[C@@H](C)[C@@H](O)[C@@H](C)[C@H](OC(C)=O)[C@@H]1C.[Na+] [Rifamycin SV]
chemical sensitivity of strain ST15: −

CCCC(=O)[O-].[Na+] [Sodium butyrate]
chemical sensitivity of strain ST15: +

CCCCCCCCCCCCCCOS(=O)(=O)[O-].[Na+] [Sodium tetradecyl sulfate]
chemical sensitivity of strain ST15: −

COc1cc(-c2ccc(-n3nc(-c4ccccc4)n[n+]3-c3ccccc3)c(OC)c2)ccc1-n1nc(-c2ccccc2)n[n+]1-c1ccccc1.[Cl-].[Cl-] [Tetrazolium blue]
chemical sensitivity of strain ST15: −

c1ccc(-c2nn(-c3ccccc3)[n+](-c3cccc4ccccc34)n2)cc1 [Tetrazolium violet]
chemical sensitivity of strain ST15: −

CO[C@H]1C[C@H](O[C@H]2[C@H](C)[C@@H](O[C@@H]3O[C@H](C)C[C@H](N(C)C)[C@H]3OC(C)=O)[C@@H](C)C[C@@]3(CO3)C(=O)[C@H](C)[C@@H](OC(C)=O)[C@@H](C)[C@@H](C)OC(=O)[C@@H]2C)O[C@@H](C)[C@@H]1OC(C)=O [Troleandomycin]
chemical sensitivity of strain ST15: −

CN[C@H](CC(C)C)C(=O)N[C@H]1C(=O)N[C@@H](CC(N)=O)C(=O)N[C@H]2C(=O)N[C@H]3C(=O)N[C@H](C(=O)N[C@H](C(=O)O)c4cc(O)cc(O)c4-c4cc3ccc4O)[C@H](O)c3ccc(c(Cl)c3)Oc3cc2cc(c3O[C@@H]2O[C@H](CO)[C@@H](O)[C@H](O)[C@H]2O[C@H]2C[C@](C)(N)[C@H](O)[C@H](C)O2)Oc2ccc(cc2Cl)[C@H]1O [Vancomycin]
chemical sensitivity of strain ST15: −
